Experimental data reported in PubChem BioAssay AID1963865 (Molecular Pharmacology Branch, DTP, NCI, 2024).

Tested on: KRAS PDC multicell spheroid viability
Assay: Anticancer human tumor 825966-067-R-J1-PDC patient-derived colon carcinoma cell line growth inhibition [KRAS2]
Conditions: for IC50: curve of first compound; for viability, T/C: stronger effect = lower value
From the text: Multicellular complex tumor spheroid response to RAS pathway inhibitors in combination with a targeted agents in patient-derived cell lines with oncogenic KRAS variants from multiple cancer types
A high-throughput screen of multi-cell type tumor spheroids was designed to identify active combinations of targeted small molecules and KRAS pathway inhibitors. Complex spheroids include a stromal component modeled by human endothelial cells (HUVEC) and fibroblasts modeled by human mesenchymal stem cells (MSCs). The concentration ranges selected for each drug and investigational agent were based upon clinically achievable concentrations if the clinical Cmax of the agent was known.
Compounds. The drugs and investigational agents: BI-3406 (NSC825286), BAY-293 (NSC824723), batoprotafib (TNO155; NSC825523), sotorasib (AMG 510; NSC818433), MRTX1257 (NSC819558), elimusertib (BAY 1895344; NSC800525), molibresib (GSK525762; NSC774829), temuterkib (LY3214996; NSC803410), venetoclax (NSC766270), alisertib (NSC759677), olaparib (NSC753686), talazoparib (NSC767125), erdafitinib (NSC781556), ipatasertib (NSC767898), cabozantinib (NSC761068), nintedanib (NSC756659), abemaciclib (NSC768073), docetaxel (NSC628503), trametinib (NSC758246), and sapanisertib (NSC764658) were obtained from the National Cancer Institute (NCI) Developmental Therapeutics Program Chemical Repository. The FDA-approved anticancer drug set is available from the Developmental Therapeutics Program. […] The stock solutions were prepared in dimethyl sulfoxide (DMSO, Sigma-Aldrich, St. Louis, MO, cat. D2650) at 800-fold the tested concentration and stored at -70 degrees C prior to their use. All drugs and investigational agents were tested over a range starting from a high concentration at or near the clinical Cmax and decreasing in half-log increments. If the clinical Cmax for an agent had not been determined, the highest concentration tested was 10 microM.
Cell Culture. All cells were maintained in an incubator at 37 degrees C and 5% CO2 with 95% humidity. The PDC lines were cultured according to standard operating procedures established by the NCI PDMR (https://pdmr.cancer.gov/sops/default.htm). Briefly, all PDCs were thawed and cultured in Matrigel-coated flasks prepared with a working solution of 1X Ham's F-12 nutrient mix, without supplementation (Invitrogen, Waltham, MA, cat. 11765054), 100 U/mL penicillin-streptomycin (Invitrogen, cat. 15140122), and 2.5% Matrigel (Corning Inc., Corning, NY, cat. 354248) for the first three passages. All PDCs were cultured in complete DMEM/F-12 media containing advanced DMEM/F-12 (Invitrogen, cat. 12634028), 4.9% defined fetal bovine serum, heat inactivated (HyClone Laboratories Inc., Logan, UT, cat. SH30070.03HI), 389 ng/mL hydrocortisone (Sigma-Aldrich, cat. H4001), 9.7 ng/mL human EGF recombinant protein (Invitrogen, cat. PHG0313), 23.4 microg/mL adenine (Sigma-Aldrich, cat. A2786), 97.3 U/mL penicillin-streptomycin (Invitrogen, cat. 15140122), 1.9 mM L-glutamine (Invitrogen, cat. 25030081), and 9.7 microM Y-27632 dihydrochloride (Tocris Bioscience, Bristol, United Kingdom, cat. 1254). The PDCs were cultured in complete DMEM/F12 media without 9.7 microM Y-27632 dihydrochloride for at least two passages prior to the screen. The established cell line HOP-62 was cultured in RPMI 1640 medium, HEPES (Invitrogen, cat. 22400105) with 10% defined fetal bovine serum (HyClone Laboratories Inc., cat. SH30070.03) and 2 mM L-glutamine (Invitrogen, cat. 25030081). The pooled donor HUVEC were cultured in endothelial cell growth medium 2 (PromoCell, Heidelberg, Germany, cat. C-22011) and the hMSC were cultured in mesenchymal stem cell growth medium 2 (PromoCell, cat. C-28009). For all experiments, HUVEC and hMSC were used at passages </=5, while the malignant cell lines were used at passages </=15. […]

[1] = second compound 0.1 µM, first compound 0.0316 µM
[2] = second compound 0.1 µM, first compound 0.1 µM
[3] = second compound 0.1 µM, first compound 0.316 µM
[4] = second compound 0.1 µM, first compound 1 µM
[5] = second compound 0.1 µM, first compound 3.16 µM
[6] = second compound 0.1 µM, first compound 10 µM
[7] = second compound 0.316 µM, first compound 0.0316 µM
[8] = second compound 0.316 µM, first compound 0.1 µM
[9] = second compound 0.316 µM, first compound 0.316 µM
[10] = second compound 0.316 µM, first compound 1 µM
[11] = second compound 0.316 µM, first compound 3.16 µM
[12] = second compound 0.316 µM, first compound 10 µM
[13] = second compound 1 µM, first compound 0.0316 µM
[14] = second compound 1 µM, first compound 0.1 µM
[15] = second compound 1 µM, first compound 0.316 µM
[16] = second compound 1 µM, first compound 1 µM
[17] = second compound 1 µM, first compound 3.16 µM
[18] = second compound 1 µM, first compound 10 µM
[19] = second compound 3.16 µM, first compound 0.0316 µM
[20] = second compound 3.16 µM, first compound 0.1 µM
[21] = second compound 3.16 µM, first compound 0.316 µM
[22] = second compound 3.16 µM, first compound 1 µM
[23] = second compound 3.16 µM, first compound 3.16 µM
[24] = second compound 3.16 µM, first compound 10 µM
[25] = second compound 10 µM, first compound 0.0316 µM
[26] = second compound 10 µM, first compound 0.1 µM
[27] = second compound 10 µM, first compound 0.316 µM
[28] = second compound 10 µM, first compound 1 µM
[29] = second compound 10 µM, first compound 3.16 µM
[30] = second compound 10 µM, first compound 10 µM
[31] = second compound 0.1 µM, first compound 0.00316 µM
[32] = second compound 0.1 µM, first compound 0.01 µM
[33] = second compound 0.316 µM, first compound 0.00316 µM
[34] = second compound 0.316 µM, first compound 0.01 µM
[35] = second compound 1 µM, first compound 0.00316 µM
[36] = second compound 1 µM, first compound 0.01 µM
[37] = second compound 3.16 µM, first compound 0.00316 µM
[38] = second compound 3.16 µM, first compound 0.01 µM
[39] = second compound 10 µM, first compound 0.00316 µM
[40] = second compound 10 µM, first compound 0.01 µM
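Further: spheroids exposed to compounds for 7 days.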
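Wherever viability, T/C is given: 100% = DMSO vehicle control viability.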

| SMILES | IC50 (second compound 0.1 µM) | IC50 (second compound 0.316 µM) | IC50 (second compound 1 µM) | IC50 (second compound 3.16 µM) | IC50 (second compound 10 µM) | viability, T/C [1] | viability, T/C [2] | viability, T/C [3] | viability, T/C [4] | viability, T/C [7] | viability, T/C [8] | viability, T/C [9] | viability, T/C [10] | viability, T/C [13] | viability, T/C [14] | viability, T/C [15] | viability, T/C [19] | viability, T/C [20] | viability, T/C [25] | viability, T/C [26] | other results |
| --- | --- | --- | --- | --- | --- | --- | --- | --- | --- | --- | --- | --- | --- | --- | --- | --- | --- | --- | --- | --- | --- |
| CC(C)NCC(C(=O)N1CCN(c2ncnc3c2C(C)CC3O)CC1)c1ccc(Cl)cc1 (stereo not given) + C=CC(=O)N1CCN(c2nc(=O)n(-c3c(C)ccnc3C(C)C)c3nc(-c4c(O)cccc4F)c(F)cc23)C(C)C1 | 2.27 µM | 1.64 µM | 1.47 µM | 1.6 µM | 0.235 µM | 105% | 139% | 155% | 93.6% | 104% | 127% | 136% | 73.7% | 88.7% | 121% | 120% | 97.2% | 130% | 76.2% | 150% | viability, T/C [5]: 35.2%; viability, T/C [6]: 10.4%; viability, T/C [11]: 26.6%; viability, T/C [12]: 10.6%; viability, T/C [16]: 69%; viability, T/C [17]: 16.9%; viability, T/C [18]: 6.64%; viability, T/C [21]: 110%; viability, T/C [22]: 68.5%; viability, T/C [23]: 23.6%; viability, T/C [24]: 9.85%; viability, T/C [27]: 27.9%; viability, T/C [28]: 14.5%; viability, T/C [29]: 6.65%; viability, T/C [30]: 2.19% |
| CC1(C)CCC(CN2CCN(c3ccc(C(=O)NS(=O)(=O)c4ccc(NCC5CCOCC5)c([N+](=O)[O-])c4)c(Oc4cnc5[nH]ccc5c4)c3)CC2)=C(c2ccc(Cl)cc2)C1 + C=CC(=O)N1CCN(c2nc(=O)n(-c3c(C)ccnc3C(C)C)c3nc(-c4c(O)cccc4F)c(F)cc23)C(C)C1 | 2.02 µM | 2.19 µM | 2.07 µM | 1.77 µM | 1.9 µM | 90.5% | 99.3% | 115% | 95.9% | 93.6% | 86.6% | 103% | 94.7% | 102% | 108% | 81.2% | 76.4% | 103% | 89.7% | 98.1% | viability, T/C [5]: 20.8%; viability, T/C [6]: 6.39%; viability, T/C [11]: 29.2%; viability, T/C [12]: 5.85%; viability, T/C [16]: 104%; viability, T/C [17]: 21.3%; viability, T/C [18]: 1.24%; viability, T/C [21]: 102%; viability, T/C [22]: 81.1%; viability, T/C [23]: 18.2%; viability, T/C [24]: 2.96%; viability, T/C [27]: 107%; viability, T/C [28]: 110%; viability, T/C [29]: 9.64%; viability, T/C [30]: 1.37% |
| CCN1CCN(Cc2ccc(Nc3ncc(F)c(-c4cc(F)c5nc(C)n(C(C)C)c5c4)n3)nc2)CC1 + C=CC(=O)N1CCN(c2nc(=O)n(-c3c(C)ccnc3C(C)C)c3nc(-c4c(O)cccc4F)c(F)cc23)C(C)C1 | > 1 µM | > 1 µM | > 1 µM | > 1 µM | 0.743 µM | 101% | 96.3% | 143% | 119% | 112% | 118% | 153% | 111% | 102% | 114% | 163% | 126% | 121% | 100% | 143% | viability, T/C [31]: 90%; viability, T/C [32]: 107%; viability, T/C [33]: 80.8%; viability, T/C [34]: 85.9%; viability, T/C [35]: 87.3%; viability, T/C [36]: 84.8%; viability, T/C [16]: 83%; viability, T/C [37]: 89.5%; viability, T/C [38]: 92.4%; viability, T/C [21]: 155%; viability, T/C [22]: 76.8%; viability, T/C [39]: 104%; viability, T/C [40]: 102%; viability, T/C [27]: 117%; viability, T/C [28]: 27.9% |
| Cn1ncnc1[C@H]1c2n[nH]c(=O)c3cc(F)cc(c23)N[C@@H]1c1ccc(F)cc1 + C=CC(=O)N1CCN(c2nc(=O)n(-c3c(C)ccnc3C(C)C)c3nc(-c4c(O)cccc4F)c(F)cc23)C(C)C1 | > 0.1 µM | > 0.1 µM | > 0.1 µM | > 0.1 µM | > 0.1 µM | 90.1% | 82.3% |  |  | 90.7% | 72.3% |  |  | 102% | 80.6% |  | 72% | 87.7% | 115% | 76.9% | viability, T/C (second compound 0.1 µM, first compound 0.000316 µM): 132%; viability, T/C (second compound 0.1 µM, first compound 0.001 µM): 100%; viability, T/C [31]: 98.2%; viability, T/C [32]: 89.6%; viability, T/C (second compound 0.316 µM, first compound 0.000316 µM): 100%; viability, T/C (second compound 0.316 µM, first compound 0.001 µM): 99.9%; viability, T/C [33]: 143%; viability, T/C [34]: 103%; viability, T/C (second compound 1 µM, first compound 0.000316 µM): 100%; viability, T/C (second compound 1 µM, first compound 0.001 µM): 91.7%; viability, T/C [35]: 75.2%; viability, T/C [36]: 79.3%; viability, T/C (second compound 3.16 µM, first compound 0.000316 µM): 109%; viability, T/C (second compound 3.16 µM, first compound 0.001 µM): 102%; viability, T/C [37]: 101%; viability, T/C [38]: 98.3%; viability, T/C (second compound 10 µM, first compound 0.000316 µM): 92.4%; viability, T/C (second compound 10 µM, first compound 0.001 µM): 124%; viability, T/C [39]: 93.2%; viability, T/C [40]: 111% |
